Test results taken from ChEMBL document CHEMBL6134931, “Lysine-Targeted Covalent Strategy Leading to the Discovery of Novel Potent PROTAC-Based PI3Kδ Degraders” (J Med Chem, 2025).
Active and inactive are the calls of the source. No cut-off for these calls is given here.

Tests used:
SU-DHL-6 [1] = experiment: Antiproliferative activity against human SU-DHL-6 cells assessed as cell growth inhibition incubated for 72 hrs by MTT assay; format: functional
Pfeiffer = experiment: Antiproliferative activity against human Pfeiffer cells assessed as cell growth inhibition incubated for 72 hrs by MTT assay; format: functional
SU-DHL-6 [2] = experiment: Inhibition of AKT phosphorylation in human SU-DHL-6 cells at 0.1 to 1 uM incubated for 24 hrs by Western blot analysis; format: cell-based; conditions: dose 0.1-1 µM
SU-DHL-6 [3] = experiment: Inhibition of AKT phosphorylation in human SU-DHL-6 cells at higher concentration incubated for 24 hrs by Western blot analysis; format: cell-based
SU-DHL-6 [4] = experiment: Induction of autophagy in human SU-DHL-6 cells assessed as increase in LC3-II to LC3-I ratio at 1 to 100 nM incubated for 24 hrs by Western blot analysis; format: functional, cell-based; conditions: dose 1-100 nM
SU-DHL-6 [5] = experiment: Inhibition of AKT phosphorylation in human SU-DHL-6 cells at 1 to 10000 nM incubated for 24 hrs by Western blot analysis; format: cell-based; conditions: dose 1-10000 nM

SMILES	GI50 (SU-DHL-6 [1]) [µM]	GI50 (Pfeiffer) [µM]	inhibition (SU-DHL-6 [2])	inhibition (SU-DHL-6 [3])	Activity (SU-DHL-6 [4])	inhibition (SU-DHL-6 [5])
COc1ncc(-c2ccc3ncnc(N[C@H]4CCN(C(=O)CCCCCCC(=O)Nc5cccc6c5CN(C5CCC(=O)NC5=O)C6=O)C4)c3c2)cc1C#N (stereo partly drawn)	> 10		inactive			
COc1ncc(-c2ccc3ncnc(N[C@H]4CCN(C(=O)CCC(=O)NCC(=O)Nc5cccc6c5CN(C5CCC(=O)NC5=O)C6=O)C4)c3c2)cc1C#N (stereo partly drawn)	> 10		inactive			
COc1ncc(-c2ccc3ncnc(N[C@H]4CCN(CCCCCCCCC(=O)N[C@H](C(=O)N5C[C@H](O)C[C@H]5C(=O)NCc5ccc(-c6scnc6C)cc5)C(C)(C)C)C4)c3n2)cc1C(=O)Oc1ccccc1	1.37	1.25	Active			
COc1ncc(-c2ccc3ncnc(N[C@H]4CCN(C(=O)CCCCC(=O)Nc5cccc6c5CN(C5CCC(=O)NC5=O)C6=O)C4)c3c2)cc1C#N (stereo partly drawn)	> 10		inactive			
COc1ncc(-c2ccc3ncnc(N[C@H]4CCN(C(=O)CCCCCC(=O)Nc5cccc6c5CN(C5CCC(=O)NC5=O)C6=O)C4)c3c2)cc1C#N (stereo partly drawn)	> 10		inactive			
COc1ncc(-c2ccc3ncnc(N[C@H]4CCN(CCCCCCC(=O)N[C@H](C(=O)N5C[C@H](O)C[C@H]5C(=O)NCc5ccc(-c6scnc6C)cc5)C(C)(C)C)C4)c3n2)cc1C(=O)Oc1ccccc1	1.23	1.41	Active			
COc1ncc(-c2ccc3ncnc(N[C@H]4CCN(C(=O)CCC(=O)NCCC(=O)Nc5cccc6c5CN(C5CCC(=O)NC5=O)C6=O)C4)c3c2)cc1C#N (stereo partly drawn)	> 10		inactive			
COc1ncc(-c2ccc3ncnc(N[C@H]4CCN(C(=O)CCCCCCC(=O)N[C@H](C(=O)N5C[C@H](O)C[C@H]5C(=O)NCc5ccc(-c6scnc6C)cc5)C(C)(C)C)C4)c3c2)cc1C#N	> 10		inactive			
COc1ncc(-c2ccc3ncnc(N[C@H]4CCN(C(=O)CCC(=O)NCCOCCOCC(=O)Nc5cccc6c5CN(C5CCC(=O)NC5=O)C6=O)C4)c3c2)cc1C#N (stereo partly drawn)	> 10		inactive			
COc1ncc(-c2ccc3ncnc(N[C@H]4CCN(CCCCCCCCCC(=O)N[C@H](C(=O)N5C[C@H](O)C[C@H]5C(=O)NCc5ccc(-c6scnc6C)cc5)C(C)(C)C)C4)c3n2)cc1C(=O)Oc1ccccc1	2.48	1.37	Active			
COc1ncc(-c2ccc3ncnc(N[C@H]4CCN(C(=O)CCC(=O)NCCCC(=O)Nc5cccc6c5CN(C5CCC(=O)NC5=O)C6=O)C4)c3c2)cc1C#N (stereo partly drawn)	> 10		inactive			
COc1ncc(-c2ccc3ncnc(N[C@H]4CCN(C(=O)C5CCN(CCCCCC(=O)N[C@H](C(=O)N6C[C@H](O)C[C@H]6C(=O)NCc6ccc(-c7scnc7C)cc6)C(C)(C)C)CC5)C4)c3n2)cc1C(=O)Oc1ccccc1	2.47	> 10	Active			
COc1ncc(-c2ccc3ncnc(N[C@H]4CCN(C(=O)C5CCN(CCCCCCC(=O)N[C@H](C(=O)N6C[C@H](O)C[C@H]6C(=O)NCc6ccc(-c7scnc7C)cc6)C(C)(C)C)CC5)C4)c3n2)cc1C(=O)Oc1ccccc1	2.63	2.96	Active			
COc1ncc(-c2ccc3ncnc(N[C@H]4CCN(C(=O)CCC(=O)NCCCCCC(=O)Nc5cccc6c5CN(C5CCC(=O)NC5=O)C6=O)C4)c3c2)cc1C#N (stereo partly drawn)	> 10		inactive			

Stronger by GI50 (SU-DHL-6 [1]), values ahead:

GI50 (SU-DHL-6 [1]) [µM]	SMILES	GI50 (Pfeiffer) [µM]	inhibition (SU-DHL-6 [2])	inhibition (SU-DHL-6 [3])	Activity (SU-DHL-6 [4])	inhibition (SU-DHL-6 [5])
0.48	COc1ncc(-c2ccc3ncnc(N[C@H]4CCN(C(=O)C5CCN(CCCCCCCCCCCCC(=O)N[C@H](C(=O)N6C[C@H](O)C[C@H]6C(=O)NCc6ccc(-c7scnc7C)cc6)C(C)(C)C)CC5)C4)c3n2)cc1C(=O)Oc1ccccc1	1.06	Active			
0.9	COc1ncc(-c2ccc3ncnc(N[C@H]4CCN(C(=O)C5CCN(CCCCCCCCCC(=O)N[C@H](C(=O)N6C[C@H](O)C[C@H]6C(=O)N[C@@H](C)c6ccc(-c7scnc7C)cc6)C(C)(C)C)CC5)C4)c3n2)cc1C(=O)Nc1ccccc1			Active		
0.4	COc1ncc(-c2ccc3ncnc(N[C@H]4CCN(C(=O)C5CCN(CCCCCCCCCCCC(=O)N[C@H](C(=O)N6C[C@H](O)C[C@H]6C(=O)NCc6ccc(-c7scnc7C)cc6)C(C)(C)C)CC5)C4)c3n2)cc1C(=O)Oc1ccccc1	1.94	Active			
0.3	COc1ncc(-c2ccc3ncnc(N[C@H]4CCN(C(=O)C5CCN(C(=O)CCCCCCCCCN[C@H](C(=O)N6C[C@H](O)C[C@H]6C(=O)NCc6ccc(-c7scnc7C)cc6)C(C)(C)C)CC5)C4)c3n2)cc1C(=O)Oc1ccccc1	> 10	Active			
0.49	COc1ncc(-c2ccc3ncnc(N[C@H]4CCN(C(=O)C5CCN(CCCCCCCCCC(=O)Nc6cccc7c6CN(C6CCC(=O)NC6=O)C7=O)CC5)C4)c3n2)cc1C(=O)Oc1ccccc1 (stereo partly drawn)	> 10	Active			
0.76	COc1ncc(-c2ccc3ncnc(N[C@H]4CCN(C(=O)C5CCN(CCCCCCCC(=O)N[C@H](C(=O)N6C[C@H](O)C[C@H]6C(=O)NCc6ccc(-c7scnc7C)cc6)C(C)(C)C)CC5)C4)c3n2)cc1C(=O)Oc1ccccc1	0.77	Active			
0.73	COc1ncc(-c2ccc3ncnc(N[C@H]4CCN(C(=O)C5CCN(CCCCCCCCC(=O)N[C@H](C(=O)N6C[C@H](O)C[C@H]6C(=O)NCc6ccc(-c7scnc7C)cc6)C(C)(C)C)CC5)C4)c3n2)cc1C(=O)Oc1ccccc1	0.6	Active			
0.9	COc1ncc(-c2ccc3ncnc(N[C@H]4CCN(CCCCCCCC(=O)N[C@H](C(=O)N5C[C@H](O)C[C@H]5C(=O)NCc5ccc(-c6scnc6C)cc5)C(C)(C)C)C4)c3n2)cc1C(=O)Oc1ccccc1	1.28	Active			
0.18	COc1ncc(-c2ccc3ncnc(N[C@H]4CCN(C(=O)C5CCN(CCCCCCCCCCC(=O)N[C@H](C(=O)N6C[C@H](O)C[C@H]6C(=O)NCc6ccc(-c7scnc7C)cc6)C(C)(C)C)CC5)C4)c3n2)cc1C(=O)Oc1ccccc1	0.34	Active		Active	Active
0.87	COc1ncc(-c2ccc3ncnc(N[C@H]4CCN(C(=O)C5CCN(CCCCCCCCCC(=O)N[C@H](C(=O)N6C[C@@H](O)C[C@H]6C(=O)N[C@@H](C)c6ccc(-c7scnc7C)cc6)C(C)(C)C)CC5)C4)c3n2)cc1C(=O)Oc1ccccc1			Active		
